In US20260008762A1, “CANNABINOID ACIDS CRYSTALLINE FORMS, METHODS OF PRODUCING, AND USES THEREOF” (priority 2022, published 2026):

Experiments:
[1] = target: SARS-CoV-2 spike protein S1 C-terminal domain (Severe acute respiratory syndrome coronavirus 2, UniProt P0DTC2); details: can inhibit the virus' ability to enter new host cells; cited from earlier work
[2] = compared with THCa under similar conditions; cited from earlier work
[3] = Thermogravimetric analysis (TGA) of crystalline form; format: physicochemical; details: crystalline single component form, dry nitrogen flow
Method: Thermal gravimetric analysis (TGA) was carried out using a TA instruments 2910 under dry nitrogen flow (30 mL/min for both the furnace and the balance). For a typical experiment, 5-10 mg of solid material was placed into the pan and was allowed to equilibrate at room temperature under nitrogen for approximately 5 minutes prior to the start of each experiment to ensure a stable baseline. A heating rate of 1° C./min or 5° C./min was utilized.

| Structure (SMILES) | binding to SARS-CoV-2 spike protein S1 C-terminal domain [1] | rate of decarboxylation [2] | TGA degradation onset [3] |
| --- | --- | --- | --- |
| C=C(C)[C@@H]1CCC(C)=C[C@H]1c1c(O)cc(CCCCC)c(C(=O)O)c1O [CBDa, cannabidiolic acid] | found to bind to the SARS-CoV-2 spike protein S1 C-terminal domain | decarboxylates at a faster rate than THCa | about 150 °C |
| CCCCCc1cc(O)c(C/C=C(\C)CCC=C(C)C)c(O)c1C(=O)O [CBGa, cannabigerolic acid] | found to bind to the SARS-CoV-2 spike protein S1 C-terminal domain | – | about 115 °C |
| CCCCCc1cc2c(c(O)c1C(=O)O)[C@@H]1C=C(C)CC[C@H]1C(C)(C)O2 [THCa, tetrahydrocannabinolic acid] | – | – | about 125 °C |
